{"source": "patent US20260232767A1", "about": "“INTERLEUKIN-23 RECEPTOR ANTAGONIST PEPTIDES FOR USE IN THE TREATMENT OF PSORIASIS” (Janssen Pharmaceutica NV, priority 2023, published 2026)", "tested_on": "subjects with moderate-to-severe plaque psoriasis", "test": "Hematology and chemistry laboratory values by CTCAE grade", "type": "in vivo, human", "conditions": "through Week 56", "text": "The proportion of participants who discontinued study intervention due to one or more AEs was low (n=4). All events were singular in nature with no apparent dose-dependent increase (Table 48 and Table 52). The number of participants with abnormal hematology and chemistry laboratory values with CTCAE toxicity grade≥3 were low through the end of the study (Table 43 through Table 46). There was no apparent dose-dependent increase in laboratory abnormality occurrences.", "data": [{"smiles": "CC(=O)NCCCC[C@@H]1NC(=O)[C@H](Cc2c[nH]c3c(C)cccc23)NC(=O)[C@H]([C@@H](C)O)NC(=O)[C@H](CC(N)=O)NC(=O)[C@@H](NC(C)=O)C(C)(C)SSC(C)(C)[C@@H](C(=O)N[C@@H](Cc2ccc(OCCN)cc2)C(=O)N[C@@H](Cc2ccc3ccccc3c2)C(=O)NC2(C(=O)N[C@@H](CCC(=O)O)C(=O)N[C@@H](CC(N)=O)C(=O)N[C@@H](Cc3cccnc3)C(=O)N(C)CC(N)=O)CCOCC2)NC1=O", "note": "[IL-23 receptor antagonist peptide, Ac-[Pen]*-N-T-[W(7-Me)]-[Lys(Ac)]-[Pen]*-Phe[4-(2-aminoethoxy)]-[2-Nal]-[THP]-E-N-[3-Pal]-Sarc-NH2 (*[Pen]-[Pen]* formdisulfidebond)]", "values": [{"measurement": "Sodium (increased): Subjects with Grade 4", "setting": "25 mg BID", "result": 0}, {"measurement": "Total Bilirubin (increased): Subjects with Grade 2", "setting": "25 mg BID", "result": 0}, {"measurement": "Total Bilirubin (increased): Subjects with Grade 3", "setting": "25 mg BID", "result": 0}, {"measurement": "Total Bilirubin (increased): Subjects with Grade 4", "setting": "25 mg BID", "result": 0}, {"measurement": "Triglycerides (increased): Subjects with Grade 3", "setting": "25 mg BID", "result": 0}, {"measurement": "Triglycerides (increased): Subjects with postbaseline maximum toxicity grade >0", "setting": "25 mg BID", "result": 8}, {"measurement": "WBC (×10^9/L) (decreased): subjects with Grade 3", "setting": "25 mg BID", "result": 0}, {"measurement": "WBC (×10^9/L) (decreased): subjects with Grade 4", "setting": "25 mg BID", "result": 0}, {"measurement": "WBC (×10^9/L) (increased): subjects with Grade 1", "setting": "25 mg BID", "result": 0}, {"measurement": "WBC (×10^9/L) (increased): subjects with Grade 2", "setting": "25 mg BID", "result": 0}, {"measurement": "WBC (×10^9/L) (increased): subjects with Grade 3", "setting": "25 mg BID", "result": 0}, {"measurement": "WBC (×10^9/L) (increased): subjects with Grade 4", "setting": "25 mg BID", "result": 0}, {"measurement": "WBC (×10^9/L) (increased): subjects with postbaseline maximum toxicity grade >0", "setting": "25 mg BID", "result": 0}, {"measurement": "Alanine Aminotransferase (increased): Subjects with Grade 1", "setting": "25 mg QD", "result": 7}, {"measurement": "Alanine Aminotransferase (increased): Subjects with Grade 4", "setting": "25 mg QD", "result": 0}, {"measurement": "Alanine Aminotransferase (increased): Subjects with postbaseline maximum toxicity grade >0", "setting": "25 mg QD", "result": 9}, {"measurement": "Albumin (decreased): Subjects with Grade 1", "setting": "25 mg QD", "result": 0}, {"measurement": "Albumin (decreased): Subjects with Grade 2", "setting": "25 mg QD", "result": 0}, {"measurement": "Albumin (decreased): Subjects with Grade 3", "setting": "25 mg QD", "result": 0}, {"measurement": "Albumin (decreased): Subjects with Grade 4", "setting": "25 mg QD", "result": 0}, {"measurement": "Albumin (decreased): Subjects with postbaseline maximum toxicity grade >0", "setting": "25 mg QD", "result": 0}, {"measurement": "Alkaline Phosphatase (increased): Subjects with Grade 2", "setting": "25 mg QD", "result": 0}, {"measurement": "Alkaline Phosphatase (increased): Subjects with Grade 3", "setting": "25 mg QD", "result": 0}, {"measurement": "Alkaline Phosphatase (increased): Subjects with Grade 4", "setting": "25 mg QD", "result": 0}, {"measurement": "Aspartate Aminotransferase (increased): Subjects with Grade 1", "setting": "25 mg QD", "result": 5}, {"measurement": "Aspartate Aminotransferase (increased): Subjects with Grade 3", "setting": "25 mg QD", "result": 0}, {"measurement": "Aspartate Aminotransferase (increased): Subjects with Grade 4", "setting": "25 mg QD", "result": 0}, {"measurement": "Calcium corrected (decreased): Subjects with Grade 2", "setting": "25 mg QD", "result": 0}, {"measurement": "Calcium corrected (decreased): Subjects with Grade 3", "setting": "25 mg QD", "result": 0}, {"measurement": "Calcium corrected (decreased): Subjects with Grade 4", "setting": "25 mg QD", "result": 0}, {"measurement": "Calcium corrected (increased): Subjects with Grade 1", "setting": "25 mg QD", "result": 0}, {"measurement": "Calcium corrected (increased): Subjects with Grade 2", "setting": "25 mg QD", "result": 0}, {"measurement": "Calcium corrected (increased): Subjects with Grade 3", "setting": "25 mg QD", "result": 0}, {"measurement": "Calcium corrected (increased): Subjects with Grade 4", "setting": "25 mg QD", "result": 0}, {"measurement": "Calcium corrected (increased): Subjects with postbaseline maximum toxicity grade >0", "setting": "25 mg QD", "result": 0}, {"measurement": "Cholesterol (increased): Subjects with Grade 2", "setting": "25 mg QD", "result": 0}, {"measurement": "Cholesterol (increased): Subjects with Grade 3", "setting": "25 mg QD", "result": 0}, {"measurement": "Cholesterol (increased): Subjects with Grade 4", "setting": "25 mg QD", "result": 0}, {"measurement": "Creatinine (increased): Subjects with Grade 2", "setting": "25 mg QD", "result": 0}, {"measurement": "Creatinine (increased): Subjects with Grade 3", "setting": "25 mg QD", "result": 0}, {"measurement": "Creatinine (increased): Subjects with Grade 4", "setting": "25 mg QD", "result": 0}, {"measurement": "Gamma Glutamyl Transferase (increased): Subjects with Grade 1", "setting": "25 mg QD", "result": 5}, {"measurement": "Gamma Glutamyl Transferase (increased): Subjects with Grade 2", "setting": "25 mg QD", "result": 0}, {"measurement": "Gamma Glutamyl Transferase (increased): Subjects with Grade 3", "setting": "25 mg QD", "result": 0}, {"measurement": "Gamma Glutamyl Transferase (increased): Subjects with Grade 4", "setting": "25 mg QD", "result": 0}, {"measurement": "Gamma Glutamyl Transferase (increased): Subjects with postbaseline maximum toxicity grade >0", "setting": "25 mg QD", "result": 5}, {"measurement": "Glucose (decreased): Subjects with Grade 2", "setting": "25 mg QD", "result": 0}, {"measurement": "Glucose (decreased): Subjects with Grade 3", "setting": "25 mg QD", "result": 0}, {"measurement": "Glucose (decreased): Subjects with Grade 4", "setting": "25 mg QD", "result": 0}, {"measurement": "Hemoglobin (g/L) (decreased): subjects with Grade 2", "setting": "25 mg QD", "result": 0}, {"measurement": "Hemoglobin (g/L) (decreased): subjects with Grade 3", "setting": "25 mg QD", "result": 0}, {"measurement": "Hemoglobin (g/L) (decreased): subjects with Grade 4", "setting": "25 mg QD", "result": 0}, {"measurement": "Hemoglobin (g/L) (increased): subjects with Grade 2", "setting": "25 mg QD", "result": 0}, {"measurement": "Hemoglobin (g/L) (increased): subjects with Grade 3", "setting": "25 mg QD", "result": 0}, {"measurement": "Hemoglobin (g/L) (increased): subjects with Grade 4", "setting": "25 mg QD", "result": 0}, {"measurement": "Lymphocytes (×10^9/L) (decreased): subjects with Grade 1", "setting": "25 mg QD", "result": 0}, {"measurement": "Lymphocytes (×10^9/L) (decreased): subjects with Grade 2", "setting": "25 mg QD", "result": 0}, {"measurement": "Lymphocytes (×10^9/L) (decreased): subjects with Grade 3", "setting": "25 mg QD", "result": 0}, {"measurement": "Lymphocytes (×10^9/L) (decreased): subjects with Grade 4", "setting": "25 mg QD", "result": 0}, {"measurement": "Lymphocytes (×10^9/L) (decreased): subjects with postbaseline maximum toxicity grade >0", "setting": "25 mg QD", "result": 0}, {"measurement": "Lymphocytes (×10^9/L) (increased): subjects with Grade 1", "setting": "25 mg QD", "result": 0}, {"measurement": "Lymphocytes (×10^9/L) (increased): subjects with Grade 2", "setting": "25 mg QD", "result": 0}, {"measurement": "Lymphocytes (×10^9/L) (increased): subjects with Grade 3", "setting": "25 mg QD", "result": 0}, {"measurement": "Lymphocytes (×10^9/L) (increased): subjects with Grade 4", "setting": "25 mg QD", "result": 0}, {"measurement": "Lymphocytes (×10^9/L) (increased): subjects with postbaseline maximum toxicity grade >0", "setting": "25 mg QD", "result": 0}, {"measurement": "Magnesium (decreased): Subjects with Grade 1", "setting": "25 mg QD", "result": 0}, {"measurement": "Magnesium (decreased): Subjects with Grade 2", "setting": "25 mg QD", "result": 0}, {"measurement": "Magnesium (decreased): Subjects with Grade 3", "setting": "25 mg QD", "result": 0}, {"measurement": "Magnesium (decreased): Subjects with Grade 4", "setting": "25 mg QD", "result": 0}, {"measurement": "Magnesium (decreased): Subjects with postbaseline maximum toxicity grade >0", "setting": "25 mg QD", "result": 0}, {"measurement": "Magnesium (increased): Subjects with Grade 2", "setting": "25 mg QD", "result": 0}, {"measurement": "Magnesium (increased): Subjects with Grade 3", "setting": "25 mg QD", "result": 0}, {"measurement": "Magnesium (increased): Subjects with Grade 4", "setting": "25 mg QD", "result": 0}, {"measurement": "Neutrophils (×10^9/L) (decreased): subjects with Grade 2", "setting": "25 mg QD", "result": 0}, {"measurement": "Neutrophils (×10^9/L) (decreased): subjects with Grade 3", "setting": "25 mg QD", "result": 0}, {"measurement": "Neutrophils (×10^9/L) (decreased): subjects with Grade 4", "setting": "25 mg QD", "result": 0}]}]}
